Counter-ions that a name gives are not always drawn.
Molecular target: CK2A1 (CK2α/β) (Homo sapiens, UniProt P68400)
Assay: CK2 kinase assay, CK2A1 (CK2α/β)
Format: biochemical
Details: Table A; read-out: CK2A1 (CK2α/β) (IC50)

CK2A1 (CK2α/β), sequence (P68400 whole entry, species assumed): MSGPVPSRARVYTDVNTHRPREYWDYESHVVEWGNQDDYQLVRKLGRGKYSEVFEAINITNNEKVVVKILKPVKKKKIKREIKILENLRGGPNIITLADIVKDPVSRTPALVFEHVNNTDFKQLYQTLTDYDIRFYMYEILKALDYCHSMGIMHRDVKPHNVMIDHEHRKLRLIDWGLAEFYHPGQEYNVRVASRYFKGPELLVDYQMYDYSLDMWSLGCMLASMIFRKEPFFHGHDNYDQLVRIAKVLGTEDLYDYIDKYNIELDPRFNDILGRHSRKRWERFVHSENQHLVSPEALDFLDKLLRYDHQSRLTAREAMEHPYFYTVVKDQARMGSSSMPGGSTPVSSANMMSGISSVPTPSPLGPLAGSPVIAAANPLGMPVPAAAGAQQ
CK2A1 (CK2α/β), sequence (P67870 whole entry partner, species assumed): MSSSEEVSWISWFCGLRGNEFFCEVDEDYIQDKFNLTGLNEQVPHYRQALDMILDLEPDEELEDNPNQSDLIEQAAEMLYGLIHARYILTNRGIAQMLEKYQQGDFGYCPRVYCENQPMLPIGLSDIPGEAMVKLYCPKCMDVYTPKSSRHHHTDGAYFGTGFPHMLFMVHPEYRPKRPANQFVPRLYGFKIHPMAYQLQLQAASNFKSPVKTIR

With N#Cc1cnc2c(NC3CC3)nc(Nc3cc(C(F)F)cc(N4CCC(C(CO)CO)CC4)c3Cl)nn12 [Example 277, 2-((2-chloro-5-(difluoromethyl)-3-(4-(2-hydroxy-1-(hydroxymethyl)ethyl)-1-piperidinyl)phenyl)amino)-4-(cyclopropylamino)imidazo[2,1-f][1,2,4]triazine-7-carbonitrile] as the molecule, how does the IC50 read?
The IC50 was 2.56 nM.

With Cc1nn(C)c(C)c1-c1cc(C#N)cc(Nc2nc(NC3CC3)c3ncc(C#N)n3n2)c1Cl [Example 717, 2-((2-chloro-5-cyano-3-(1,3,5-trimethyl-1H-pyrazol-4-yl)phenyl)amino)-4-(cyclopropylamino)imidazo[2,1-f][1,2,4]triazine-7-carbonitrile] as the molecule, how does the IC50 read?
The IC50 was 1.38 nM.

Which IC50 does the source give for CC(O)CN1CC2(CCN(c3cc(C#N)cc(Nc4nc(NC5CC5)c5ncc(C#N)n5n4)c3Cl)CC2)C1 (racemic) [Example 797, (+/−)-2-((2-chloro-5-cyano-3-(2-(2-hydroxypropyl)-2,7-diazaspiro[3.5]nonan-7-yl)phenyl)amino)-4-(cyclopropylamino)imidazo[2,1-f][1,2,4]triazine-7-carbonitrile] here?
The IC50 was 6.61 nM.

CCNc1nc(Nc2cc(C#N)cc(N3CC[C@@H](NC(=O)OC)[C@H](OC(=O)[C@@H]4CCCN4)C3)c2Cl)nn2c(C#N)cnc12 [Example 813, (S)-(3R,4R)-1-(2-chloro-5-cyano-3-((7-cyano-4-(ethylamino)imidazo[2,1-f][1,2,4]triazin-2-yl)amino)phenyl)-4-((methoxycarbonyl)amino)piperidin-3-yl pyrrolidine-2-carboxylate hydrochloride] was tested. Which IC50 did it give?
The IC50 was 4.48 nM.

For CCNc1nc(Nc2ccc3c(c2)c(C#N)cn3C2CCN([C@H]3CS(=O)(=O)C[C@@H]3O)CC2)nn2c(C#N)cnc12 [Example 828, 2-((3-cyano-1-(1-((3R,4R)-4-hydroxy-1,1-dioxidotetrahydrothiophen-3-yl)piperidin-4-yl)-1H-indol-5-yl)amino)-4-(ethylamino)imidazo[2,1-f][1,2,4]triazine-7-carbonitrile], which IC50 is on record?
Its IC50 is 0.36 nM.

With N#Cc1cc(Nc2nc(NC3CC3)c3ncc(C#N)n3n2)c(Cl)c(N2CCN(C3COC3)C(CF)C2)c1 (racemic) [Example 312, (+/−)2-((2-chloro-5-cyano-3-(3-(fluoromethyl)-4-(oxetan-3-yl)piperazin-1-yl)phenyl)amino)-4-(cyclopropylamino)imidazo[2,1-f][1,2,4]triazine-7-carbonitrile] as the molecule, how does the IC50 read?
The IC50 was 0.37 nM.

CCNc1nc(Nc2ccc3c(c2)c(C#N)cn3C2CCN(C3CN(C4COC4)C3)CC2)nn2c(C#N)cnc12 [Example 835, 2-((3-cyano-1-(1-(1-(oxetan-3-yl)azetidin-3-yl)piperidin-4-yl)-1H-indol-5-yl)amino)-4-(ethylamino)imidazo[2,1-f][1,2,4]triazine-7-carbonitrile] was tested. Which IC50 did it give?
Its IC50 is 0.98 nM.

For COC(=O)N[C@H]1CCN(c2cc(C#N)cc(Nc3nc(NC4CC4)c4ncc(C#N)n4n3)c2Cl)CC1N[C@@H](C)C(N)=O (stereo partly drawn) [Example 753, methyl N-[(4S)-3-{[(1S)-1-carbamoylethyl]amino}-1-(2-chloro-5-cyano-3-{[7-cyano-4-(cyclopropylamino)imidazo [2,1-f][1,2,4]triazin-2-yl]amino}phenyl)piperidin-4-yl]carbamate], which IC50 is on record?
Its IC50 is 2.46 nM.

How did the IC50 turn out when N#Cc1cc(Nc2nc(NC3CC3)c3ncc(C#N)n3n2)c(Cl)c(C2CCN(C3CCC3=O)CC2)c1 (centres unmarked) [Example 644, 2-((2-chloro-5-cyano-3-(1-(2-oxocyclobutyl)piperidin-4-yl)phenyl)amino)-4-(cyclopropylamino)imidazo[2,1-f][1,2,4]triazine-7-carbonitrile] was run?
The IC50 was 0.85 nM.

How did the IC50 turn out when Cc1nn(CCN(C)C)c(C)c1-c1cc(C#N)cc(Nc2nc(NC3CC3)c3ncc(C#N)n3n2)c1Cl [Example 719, 2-[(2-chloro-5-cyano-3-{1-[2-(dimethylamino)ethyl]-3,5-dimethyl-1H-pyrazol-4-yl}phenyl)amino]-4-(cyclopropylamino)imidazo [2,1-f][1,2,4]triazine-7-carbonitrile] was run?
The IC50 was 7.41 nM.

CCNc1nc(Nc2ccc3c(c2)c(C#N)cn3C2CCN(C3CN(C[C@H](C)O)C3)CC2)nn2c(C#N)cnc12 [Example 834, (S)-2-((3-cyano-1-(1-(1-(2-hydroxypropyl)azetidin-3-yl)piperidin-4-yl)-1H-indol-5-yl)amino)-4-(ethylamino)imidazo[2,1-f][1,2,4]triazine-7-carbonitrile] was tested. Which IC50 did it give?
Its IC50 is 0.6 nM.

CO[C@@H](C)C(=O)N1CC(N2CCN(c3cc(C#N)cc(Nc4nc(NC5CC5)c5ncc(C#N)n5n4)c3Cl)CC2)C1 [Example 521, 2-{[2-chloro-5-cyano-3-(4-{1-[(2S)-2-methoxypropanoyl]azetidin-3-yl}piperazin-1-yl)phenyl]amino}-4-(cyclopropylamino)imidazo[2,1-f][1,2,4]triazine-7-carbonitrile] was tested. Which IC50 did it give?
The IC50 was 3.35 nM.

With N#Cc1cc(Nc2nc(NC3CC3)c3ncc(C#N)n3n2)c(Cl)c(N2CCN(C(=O)OCC3CCCO3)CC2)c1 (centres unmarked) [Example 534, (tetrahydrofuran-2-yl)methyl 4-(2-chloro-5-cyano-3-((7-cyano-4-(cyclopropylamino)imidazo[2,1-f][1,2,4]triazin-2-yl)amino)phenyl)piperazine-1-carboxylate] as the molecule, how does the IC50 read?
The IC50 was 0.51 nM.

N#Cc1cc(NCCO)c(Cl)c(Nc2nc(NC3CC3)c3ncc(C#N)n3n2)c1 [Example 615, 2-((2-chloro-5-cyano-3-((2-hydroxyethyl)amino)phenyl)amino)-4-(cyclopropylamino)imidazo[2,1-f][1,2,4]triazine-7-carbonitrile] was tested. Which IC50 did it give?
Its IC50 is 0.18 nM.

With CN1CCC(N2CC(O)(c3cc(C#N)cc(Nc4nc(NC5CC5)c5ncc(C#N)n5n4)c3Cl)C2)CC1 [Example 647, 2-((2-chloro-5-cyano-3-(3-hydroxy-1-(1-methylpiperidin-4-yl)azetidin-3-yl)phenyl)amino)-4-(cyclopropylamino)imidazo[2,1-f][1,2,4]triazine-7-carbonitrile] as the molecule, how does the IC50 read?
Its IC50 is 1.94 nM.

With COC(=O)NC1CCN(c2cc(C#N)cc(Nc3nc(NC4CC4)c4ncc(C#N)n4n3)c2Cl)CC1 [Example 146, methyl (1-(2-chloro-5-cyano-3-((7-cyano-4-(cyclopropylamino)imidazo [2,1-f][1,2,4]triazin-2-yl)amino)phenyl)-4-piperidinyl)carbamate] as the molecule, how does the IC50 read?
The IC50 was 1.19 nM.

How did the IC50 turn out when COC(=O)N[C@@H]1CCN(c2cc(C#N)cc(Nc3nc(NC4CC4)c4ncc(C#N)n4n3)c2Cl)C[C@H]1OC(=O)[C@@H](N)C(C)C (racemic) [Example 192, (+/−)-(R)-(3S,4S)-1-(2-chloro-5-cyano-3-((7-cyano-4-(cyclopropylamino)imidazo[2,1-f][1,2,4]triazin-2-yl)amino)phenyl)-4-((methoxycarbonyl)amino)piperidin-3-yl 2-amino-3-methylbutanoate] was run?
Its IC50 is 2.12 nM.

CCNc1nc(Nc2cc(C#N)cc(N3CC[C@@H](NC(=O)OC)[C@H](OC(=O)[C@@H](N)CCN)C3)c2Cl)nn2c(C#N)cnc12 [Example 812, (S)-(3R,4R)-1-(2-chloro-5-cyano-3-((7-cyano-4-(ethylamino)imidazo[2,1-f][1,2,4]triazin-2-yl)amino)phenyl)-4-((methoxycarbonyl)amino)piperidin-3-yl 2,4-diaminobutanoate dihydrochloride] was tested. Which IC50 did it give?
The IC50 was 4.61 nM.

How did the IC50 turn out when CCNc1nc(Nc2cc(C#N)cc(N3CC[C@@H]4[C@@H](C3)OCCN4C(=O)OC)c2Cl)nn2c(C#N)cnc12 (racemic) [Example 372, (+/−)-(4aR,8aR)-methyl 6-(2-chloro-5-cyano-3-((7-cyano-4-(ethylamino)imidazo[2,1-f][1,2,4]triazin-2-yl)amino)phenyl)octahydro-1H-pyrido[3,4-b][1,4]oxazine-1-carboxylate] was run?
Its IC50 is 0.94 nM.

N#Cc1cc(Nc2nc(NC3CC3)c3ncc(C#N)n3n2)c(Cl)cc1NC1CCNCC1 [Example 410, 2-((2-chloro-5-cyano-4-(piperidin-4-ylamino)phenyl)amino)-4-(cyclopropylamino)imidazo[2,1-f][1,2,4]triazine-7-carbonitrile] was tested. Which IC50 did it give?
The IC50 was 0.68 nM.

How did the IC50 turn out when CN1CCC(O)(c2cc(C#N)cc(Nc3nc(NC4CC4)c4ncc(C#N)n4n3)c2Cl)CC1 [Example 649, 2-((2-chloro-5-cyano-3-(4-hydroxy-1-methylpiperidin-4-yl)phenyl)amino)-4-(cyclopropylamino)imidazo[2,1-f][1,2,4]triazine-7-carbonitrile] was run?
Its IC50 is 1.01 nM.

CC(CCN1CC(O)C1)c1cc(C#N)cc(Nc2nc(NC3CC3)c3ncc(C#N)n3n2)c1Cl (centres unmarked) [Example 575, 2-((2-chloro-5-cyano-3-(4-(3-hydroxyazetidin-1-yl)butan-2-yl)phenyl)amino)-4-(cyclopropylamino)imidazo[2,1-f][1,2,4]triazine-7-carbonitrile] was tested. Which IC50 did it give?
Its IC50 is 0.98 nM.

N#Cc1cc(Nc2nc(NC3CC3)c3ncc(C#N)n3n2)c(Cl)c(C2CCN(C3CC[C@@H](N)[C@H](O)C3)CC2)c1 (stereo partly drawn) [Example 217, 2-((3-(1-((3R,4R)-4-amino-3-hydroxycyclohexyl)-4-piperidinyl)-2-chloro-5-cyanophenyl)amino)-4-(cyclopropylamino)imidazo[2,1-f][1,2,4]triazine-7-carbonitrile] was tested. Which IC50 did it give?
Its IC50 is 0.6 nM.

With N#Cc1cc(Nc2nc(NC3CC3)c3ncc(C#N)n3n2)c(Cl)c(N2CC3CNCC3C2)c1 (centres unmarked) [Example 455, 2-((2-chloro-5-cyano-3-(hexahydropyrrolo[3,4-c]pyrrol-2(1H)-yl)phenyl)amino)-4-(cyclopropylamino)imidazo[2,1-f][1,2,4]triazine-7-carbonitrile] as the molecule, how does the IC50 read?
The IC50 was 0.49 nM.

With N#Cc1cc(Nc2nc(NC3CC3)c3ncc(C#N)n3n2)c(Cl)c(N2CCN(C3CN(C(=O)CCn4ccnc4)C3)CC2)c1 [Example 496, 2-{[2-chloro-5-cyano-3-(4-{1-[3-(1H-imidazol-1-yl)propanoyl]azetidin-3-yl}piperazin-1-yl)phenyl]amino}-4-(cyclopropylamino)imidazo[2,1-f][1,2,4]triazine-7-carbonitrile] as the molecule, how does the IC50 read?
The IC50 was 1.82 nM.

With N#Cc1cc(Nc2nc(NC3CC3)c3ncc(C#N)n3n2)c(Cl)c(C2CCN(C3CCC3O)CC2)c1 (single isomer, unassigned) [Example 646, Cis and trans 2-((2-chloro-5-cyano-3-(1-(2-hydroxycyclobutyl)piperidin-4-yl)phenyl)amino)-4-(cyclopropylamino)imidazo[2,1-f][1,2,4]triazine-7-carbonitrile] as the molecule, how does the IC50 read?
The IC50 was 1.48 nM.
